Experimental data taken from patent US20250041245A1, “ENDOXIFEN FOR TREATMENT OF CANCERS” (Atossa Therapeutics, Inc., priority 2021, published 2025).
pIC50: −log10 of the molar value. Where “and” joins values, the source holds several entries; their conditions need not be identical. Equal values may be shown once. Entries after “also recorded” stand apart in the source; their conditions may differ.

What was measured:
Assay type in all cases: cell-based, human
[1] = test system: patient-derived tumor organoids (PDTOs), ovarian cancer; test: Endoxifen screen in PDTOs: ovarian cancer; parameters: AUC: unit not given beside the values; conditions: each line one patient sample
Description: (§1) This example describes screening endoxifen in patient-derived tumor organoids. Endoxifen was tested as a single agent on tumor organoids derived from patients diagnosed with various cancer types using a personalized cancer treatment screening assay (PARIS© Test, SEngine Precision Medicine). The screen utilized patient-derived tumor organoids (PDTOs) along with high-throughput drug screening and machine learning-guided data analysis to quantify the efficacy of endoxifen against samples derived from individual patients diagnosed with various cancer types. PDTOs are self-organizing, three-dimensional organoid structures that recapitulate structural, functional, and genomic aspects of in vivo organs. The PDTOs were grown in culture from patient tumor biopsy samples.
Fresh patient biopsy samples received following surgery were cleaned and purified. Immune cells (e.g., lymphocytes, blood cells), cancer-associated fibroblasts, and other non-tumor cells were removed to establish pure PDTOs for endoxifen testing. […] The PDTOs were treated with increasing concentrations of endoxifen ranging from about 30 nM to about 10 μM, and the drug response was measured using a luminescence readout. A lower luminescence was indicative of a stronger drug response.
(§2) The results were analyzed using a “SEngine Precision Medicine” (SPM) scoring system to assess the sensitivity and personalization of each tumor organoid to endoxifen. […]
This example describes testing endoxifen efficacy against 17 distinct cancer types in patient-derived tumor organoids (PDTOs). […] For each PDTO sample, the drug response was measured using a luminescent readout over a range of endoxifen concentrations. The drug response was evaluated based on the area under the fitted dose response curve (AUC) and the SPM scoring system. […] The area under the curve was calculated from the normalized curve. […]
The SPM scoring system evaluated whether a PDTO was unresponsive or responsive to endoxifen and the degree of drug response for PDTOs that were responsive to endoxifen. […]

[2] = test system: patient-derived tumor organoids (PDTOs), esophageal adenocarcinoma; test: Endoxifen screen in PDTOs: esophageal adenocarcinoma; parameters: key to Personalization Category: Personalization categories range from High, Good, Moderate, Low, to None; Personalization categories range from High, Good, Moderate, Low, to None; Personalization categories range from High, Good, Moderate, Low, to None; Personalization categories range from High, Good, Moderate, Low, to None; Personalization categories range from High, Good, Moderate, Low, to None; AUC: unit not given beside the values
Description: as §1
(§3) Fresh patient biopsy samples received following surgery were cleaned and purified. Immune cells (e.g., lymphocytes, blood cells), cancer-associated fibroblasts, and other non-tumor cells were removed to establish pure PDTOs for endoxifen testing. The tumor organoids were grown and expanded by supplying organ- and patient-specific growth factors and nutrients. The PDTOs were treated with increasing concentrations of endoxifen ranging from about 30 nM to about 10 μM, and the drug response was measured using a luminescence readout. A lower luminescence was indicative of a stronger drug response.
as §2
This example describes testing endoxifen efficacy against 17 distinct cancer types in patient-derived tumor organoids (PDTOs). […] For each PDTO sample, the drug response was measured using a luminescent readout over a range of endoxifen concentrations. The drug response was evaluated based on the area under the fitted dose response curve (AUC) and the SPM scoring system. […] The area under the curve was calculated from the normalized curve. […] The SPM scores were based on machine learning models that incorporate values for how well the drug kill patient cells (sensitivity metric), the relative drug responses of a patient to all other patients in a sample database (personalization metric), and knowledge of clinical outcomes for patients that had been evaluated with the personalized cancer screening assay (PARIS® Test, SEngine Precision Medicine).
(§4) The SPM scoring system evaluated whether a PDTO was unresponsive or responsive to endoxifen and the degree of drug response for PDTOs that were responsive to endoxifen. […] The sensitivity category was determined from the sensitivity metric and is a measure of overall cell death of a patient's cells in response to endoxifen at six concentrations. […]

[3] = test system: patient-derived tumor organoids (PDTOs), primary peritoneal carcinoma; test: Endoxifen screen in PDTOs: primary peritoneal carcinoma; parameters: key to Personalization Category: Personalization categories range from High, Good, Moderate, Low, to None; Personalization categories range from High, Good, Moderate, Low, to None; Personalization categories range from High, Good, Moderate, Low, to None; Personalization categories range from High, Good, Moderate, Low, to None; Personalization categories range from High, Good, Moderate, Low, to None; key to Sensitivity Category: Sensitivity categories range from High, Good, Moderate, Low, to None; Sensitivity categories range from High, Good, Moderate, Low, to None; Sensitivity categories range from High, Good, Moderate, Low, to None; Sensitivity categories range from High, Good, Moderate, Low, to None; Sensitivity categories range from High, Good, Moderate, Low, to None; AUC: unit not given beside the values
Description: as §1, §3
(§5) The results were analyzed using a “SEngine Precision Medicine” (SPM) scoring system to assess the sensitivity and personalization of each tumor organoid to endoxifen. The SPM score correlates with clinical outcomes, such that a higher SPM score for a specific PDTO-drug combination predicts a more favorable clinical outcome following treatment of the corresponding patient with the tested drug.
(§6) This example describes testing endoxifen efficacy against 17 distinct cancer types in patient-derived tumor organoids (PDTOs). Screening of PDTOs was performed as described in EXAMPLE 1. For each PDTO sample, the drug response was measured using a luminescent readout over a range of endoxifen concentrations. The drug response was evaluated based on the area under the fitted dose response curve (AUC) and the SPM scoring system. AUC values were normalized for each PDTO. Briefly, data points at each drug concentration were first normalized to a negative control, then a dose response drug curve was approximated using a four-parameter logistic model fitted to the normalized data points. The area under the curve was calculated from the normalized curve. Normalization allowed for comparison of AUC values between patient samples. The SPM scores were based on machine learning models that incorporate values for how well the drug kill patient cells (sensitivity metric), the relative drug responses of a patient to all other patients in a sample database (personalization metric), and knowledge of clinical outcomes for patients that had been evaluated with the personalized cancer screening assay (PARIS® Test, SEngine Precision Medicine).
as §4

[4] = test system: patient-derived tumor organoids (PDTOs), neuroblastoma; test: Endoxifen screen in PDTOs: neuroblastoma; parameters: key to Personalization Category: Personalization categories range from High, Good, Moderate, Low, to None; Personalization categories range from High, Good, Moderate, Low, to None; Personalization categories range from High, Good, Moderate, Low, to None; Personalization categories range from High, Good, Moderate, Low, to None; Personalization categories range from High, Good, Moderate, Low, to None; key to Sensitivity Category: Sensitivity categories range from High, Good, Moderate, Low, to None; Sensitivity categories range from High, Good, Moderate, Low, to None; Sensitivity categories range from High, Good, Moderate, Low, to None; Sensitivity categories range from High, Good, Moderate, Low, to None; Sensitivity categories range from High, Good, Moderate, Low, to None; AUC: unit not given beside the values; conditions: each line one patient sample; for pIC50: four-parameter logistic fit
Description: as §1, §3, §5, §6
The SPM scoring system evaluated whether a PDTO was unresponsive or responsive to endoxifen and the degree of drug response for PDTOs that were responsive to endoxifen. The SPM scoring system generated metrics an SPM score, predictive of clinical outcome, overall drug response (response category), drug sensitivity (sensitivity category), and drug personalization (personalization category). SPM scores ranged from 1-15, corresponding to the following drug response categories: no response (SPM 1-8), low response (SPM 9), moderate response (SPM 10-11), good response (SPM 12-13), and exceptional response (SPM 14-15). […] Moderate to good drug responses (SPM 10-13) may indicate that a drug has clinical relevance, possibly in combination with other drugs. The sensitivity category was determined from the sensitivity metric and is a measure of overall cell death of a patient's cells in response to endoxifen at six concentrations. […]

[5] = normalized area under fitted dose response curve

pIC50 ([1]; four-parameter logistic fit): 5.03 and 5.09 and 5.17 and 5.31 and 5.14 and 5.51 and 5.16 and 5.46 and 5.21 and 5.02 and 5.38 and 5.22 and 5.44 and 5.26 and 5.43 and 5.37 and 5.04
pIC50 ([2]; Homo sapiens, Patient 14, four-parameter logistic fit): 5.40
pIC50 ([3]; Homo sapiens, patient 72, four-parameter logistic fit): 5.03
pIC50 ([4]; Homo sapiens): 5.24
pIC50 [4]: 5.23 and 5.14
SMILES: CC/C(=C(\c1ccc(O)cc1)c1ccc(OCCNC)cc1)c1ccccc1 [Endoxifen, 4-hydroxy-N-desmethyltamoxifen]
AUC [1, 5]: 0.9109 and 1.0762 and 0.8038 and 0.9291 and 0.9081 and 0.9209 and 1.0105 and 0.8454 and 0.8909 and 0.9267 and 0.9074 and 0.8343 and 0.9838 and 0.8320 and 1.0057 and 0.9637 and 1.1417 and 1.0287 and 0.8785 and 0.8853 and 0.9968 and 0.9220 and 0.8174 and 0.9760 and 0.8739 and 0.8607 and 1.0172 and 0.9895 and 0.9934
SPM Score ([1]; score range 1-15): 1 (15×) and 11 (2×) and 5 (3×) and 9 (6×) and 10 (2×) and 4
Personalization Category ([2]; Patient 14): Good
AUC ([2]; Patient 14, normalized area under fitted dose response curve): 0.7771
SPM Score ([2]; Patient 14, score range 1-15): 11
Personalization Category ([3]; patient 72): None
Sensitivity Category ([3]; patient 72): None
AUC ([3]; patient 72, normalized area under fitted dose response curve): 0.9623
SPM Score ([3]; patient 72, score range 1-15): 1
Personalization Category [4]: Low and Moderate and None
Response Category [4]: Low (low response (SPM 9)); also recorded: Moderate (moderate response (SPM 10-11)); also recorded: None (no response (SPM 1-8))
Sensitivity Category [4]: Low and None
AUC [4, 5]: 0.8848 and 0.8184 and 0.9511
SPM Score ([4]; score range 1-15): 9 and 10 and 1
